This is an account of results in PMC2605271 (Journal of clinical neuroscience : official journal of the …, 2008).

Each structure is given as a SMILES string. “Also recorded” adds a separate entry of the source.

Assay [1] deals with norepinephrine transporter (NET) (Homo sapiens, UniProt P23975). As to conditions: 10^−7 M to 10^−3 M, 30 minutes, HEK-hNET cells.
In assay [2] the target is T1, serotonin transporter (SERT) (Homo sapiens, UniProt P31645).
Assay [3] deals with T1, serotonin transporter (SERT). Nature of the assay: cell-based.
Assay [4] has as its system NET protein expression. The experiment in a line: Immunoblotting of NET protein expression in HEK-hNET cells. It counts as cell-based, human. As to conditions: 10^−6 M, 24 hours.

norepinephrine transporter (NET), sequence (P23975 whole entry): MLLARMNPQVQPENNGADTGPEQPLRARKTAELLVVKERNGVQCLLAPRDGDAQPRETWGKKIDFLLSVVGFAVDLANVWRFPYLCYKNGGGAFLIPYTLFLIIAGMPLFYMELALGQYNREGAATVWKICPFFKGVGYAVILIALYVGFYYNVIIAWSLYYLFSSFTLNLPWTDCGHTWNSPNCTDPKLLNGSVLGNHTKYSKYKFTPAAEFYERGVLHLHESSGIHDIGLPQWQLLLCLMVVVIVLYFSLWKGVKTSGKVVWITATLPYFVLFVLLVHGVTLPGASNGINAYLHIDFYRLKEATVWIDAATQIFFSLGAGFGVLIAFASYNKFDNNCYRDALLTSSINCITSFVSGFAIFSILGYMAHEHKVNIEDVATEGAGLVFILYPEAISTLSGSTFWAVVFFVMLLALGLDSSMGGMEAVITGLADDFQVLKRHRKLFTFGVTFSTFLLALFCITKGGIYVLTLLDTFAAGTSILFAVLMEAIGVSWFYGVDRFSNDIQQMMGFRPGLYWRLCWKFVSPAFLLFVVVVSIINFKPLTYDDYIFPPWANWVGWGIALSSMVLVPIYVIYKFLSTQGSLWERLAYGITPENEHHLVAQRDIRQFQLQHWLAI
T1 sequence (P31645 whole entry): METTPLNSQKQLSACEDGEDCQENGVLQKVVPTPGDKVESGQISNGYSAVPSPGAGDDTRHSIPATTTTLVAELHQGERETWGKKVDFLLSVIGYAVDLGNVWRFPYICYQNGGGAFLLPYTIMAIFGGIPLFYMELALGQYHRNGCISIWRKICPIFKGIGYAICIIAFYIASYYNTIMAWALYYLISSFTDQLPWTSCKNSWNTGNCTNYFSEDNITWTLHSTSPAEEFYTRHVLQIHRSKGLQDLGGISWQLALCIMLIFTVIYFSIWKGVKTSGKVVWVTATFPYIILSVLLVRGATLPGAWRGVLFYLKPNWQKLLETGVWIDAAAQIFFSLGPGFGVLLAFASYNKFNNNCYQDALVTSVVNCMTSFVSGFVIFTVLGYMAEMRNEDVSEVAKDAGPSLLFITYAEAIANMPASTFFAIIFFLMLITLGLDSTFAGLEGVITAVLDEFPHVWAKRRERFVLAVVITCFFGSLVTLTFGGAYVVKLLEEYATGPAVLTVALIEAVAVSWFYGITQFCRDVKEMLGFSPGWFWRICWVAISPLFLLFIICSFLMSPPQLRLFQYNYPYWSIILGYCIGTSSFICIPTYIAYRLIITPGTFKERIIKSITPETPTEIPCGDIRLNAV

Consider `CCCC(C)C1(CC)C(=O)NC(=S)NC1=O` (stereo not shown) [Thiopental, thiopental], for which the “Effect on NET function ([3H]-NE uptake)” value in assay [1] was “failed to have any effect; also recorded: no effect; also recorded: No evidence of inhibition”. In addition, in assay [2], the “Effect on SERT function ([3H]-5-HT uptake)” value is “failed to have any effect; also recorded: no effect”. In assay [3], this molecule came in with an EC50 of more than 50 mM.

As to `CNCCCN1c2ccccc2CCc2ccccc21` [desipramine], in assay [4], the “Change in NET protein expression in response to chronic desipramine treatment” value is given as “no changes”.
